pKi: −log10 of the molar value. Entries after “also recorded” stand apart in the source; their conditions may differ. Where two headings read alike, the source gives them in different places. Some results are limits rather than exact numbers.

One series concerns the target T1, human 5-HT2AR (Homo sapiens, UniProt P28223).
T1 construct: expressed in transfected cells
Description: biochemical. In kind it is binding. As for the experimental part:
(§1) Receptor Binding Assays. In vitro binding assay and Ki data were performed by the US National Institute of Mental Health Psychoactive Drug Screening Program (NIMH PDSP). Drugs were screened against recombinant, stably expressed human 5-HT2AR, 5-HT2BR, 5-HT2CR and H1. For specific binding assays please refer to detailed procedures at https://pdspdb.unc.edu/pdspWeb/ (Besnard, J. et al., Nature, 492, 215-220, 2012).

In series [1] the target is T2, human 5-HT2BR (Homo sapiens, UniProt P41595).
T2 construct: expressed in transfected cells
T2 sequence (P41595 whole entry): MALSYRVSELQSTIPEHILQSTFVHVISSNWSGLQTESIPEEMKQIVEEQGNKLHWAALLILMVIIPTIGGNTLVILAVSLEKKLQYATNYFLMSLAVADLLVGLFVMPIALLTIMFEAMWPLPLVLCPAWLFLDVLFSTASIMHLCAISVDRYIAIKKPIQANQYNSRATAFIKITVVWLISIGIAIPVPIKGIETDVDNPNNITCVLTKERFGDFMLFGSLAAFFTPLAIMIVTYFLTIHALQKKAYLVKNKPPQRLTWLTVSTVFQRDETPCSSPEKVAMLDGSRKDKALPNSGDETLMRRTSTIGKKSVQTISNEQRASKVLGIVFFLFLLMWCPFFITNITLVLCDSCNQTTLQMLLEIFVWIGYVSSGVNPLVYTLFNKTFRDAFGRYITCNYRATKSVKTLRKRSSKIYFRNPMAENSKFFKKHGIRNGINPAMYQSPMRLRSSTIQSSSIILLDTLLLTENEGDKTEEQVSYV
As to the kind of experiment: biochemical. The series is classed as binding. Particulars: for pKi: read-out: binding affinity (Ki) 5-HT2BR; for specificity / selectivity for 5-HT2BR over other 5-HT2R subtypes: radioligand binding. As to the method:
as §1

Series [2] has as its target T3, human 5-HT2CR (Homo sapiens, UniProt P28335).
T3 construct: expressed in transfected cells
T3 sequence (P28335 33-458): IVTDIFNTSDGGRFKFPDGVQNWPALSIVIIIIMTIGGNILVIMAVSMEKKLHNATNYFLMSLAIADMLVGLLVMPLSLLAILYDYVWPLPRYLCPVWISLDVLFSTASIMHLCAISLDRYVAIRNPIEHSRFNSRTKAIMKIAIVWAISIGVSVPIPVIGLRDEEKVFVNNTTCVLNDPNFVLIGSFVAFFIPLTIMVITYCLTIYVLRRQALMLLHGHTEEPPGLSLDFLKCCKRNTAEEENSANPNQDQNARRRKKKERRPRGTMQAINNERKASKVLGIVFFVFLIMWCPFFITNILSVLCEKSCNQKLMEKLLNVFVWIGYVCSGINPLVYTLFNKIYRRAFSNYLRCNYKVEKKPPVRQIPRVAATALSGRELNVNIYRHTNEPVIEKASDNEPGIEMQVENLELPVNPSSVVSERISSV
As to the kind of experiment: Radioligand binding assay (NIMH PDSP), 5-HT2CR. As for the experimental part: as §1

The subject of series [3] is scn1lab mutant zebrafish. Description: Local field potential (LFP) electrophysiology of electrographic seizure events. The following applies: 10 min LFP recording, 5 dpf larvae. The series is classed as in vivo, zebrafish (Danio rerio). As to the method: For electrophysiology studies, zebrafish larvae were anesthetized with cold and immobilized in 1.2% agarose; local field potential (LFP) recordings were obtained from forebrain or optic tectum structures using a single-electrode approach, as previously described (Baraban, S. C. et al., Neuroscience, 131, 759-768, 2005). Agarose-embedded LFP recording sessions of 10 min were obtained at 1 kHz. Epileptiform events were identified post hoc and defined as multi-spike or poly-spike upward or downward membrane deflections greater than 3× baseline noise level and 150-250 ms in duration (interictal-like) or greater than 5× baseline noise, multi-spike and >500 ms in duration (ictal-like); both events were counted using threshold detection settings in Clampfit (Molecular Devices; Sunnyvale, Calif.). During electrophysiology experiments larvae were continuously monitored for blood flow and heart rate using an Axiocam digital camera at video frame rate.
Monitoring electrographic brain activity to confirm seizure suppression is an essential assay to eliminate false positives from behavioral testing (Griffin, A. et al., Frontiers in Pharmacology, 9, 2018). By placing a microelectrode into a visually identified brain region of an agar-immobilized zebrafish larval, stable local field potential (LFP) recordings can be monitored for several hours (Baraban, S. C. et al., Nat Commun, 4, 2410, 2013). At 5 dpf LFP recordings of scn1Lab zebrafish larvae show an average of 250 abnormal electrographic seizure events during a 10 min recording epoch.

For series [4], the system named is scn1lab mutant zebrafish. As to the kind of experiment: Locomotion assay of high-velocity seizure-like swim behavior. In kind it is in vivo, zebrafish (Danio rerio). Particulars: for suppression of seizure-like swim behavior (change in mean velocity): independently resynthesized compounds retested at 10, 50, 100 and 250 μM; for suppression of seizure-like swim behavior (change in mean swim velocity): initial library screen at 100 μM and 250 μM, 5 dpf larvae, threshold reduction ≥40%. The source says: Zebrafish maintenance. Zebrafish were raised under standard laboratory conditions in accordance with requirements outlined in the Guide for the Care and Use of Animals (ebrary Inc., 2011) and experiments were approved by the Institutional Animal Care and Use Committee (protocol #AN108659-03). Embryos were obtained by natural spawning of scn1lab (didy^s552) heterozygous animals that had been outcrossed to TL strain. Homozygous scn1lab mutants (n=2500) have dispersed melanosomes and appear visibly darker by 3 dpf compared to WT larvae.
(§2) Seizure monitoring. At 5 dpf individual zebrafish larvae were placed into a single well of a clear flat-bottomed 96-well microplate containing embryo media. Larvae were selected randomly as sex determination is not possible at this stage of development. All drug screening experiments were conducted in an unbiased manner by investigators blinded to the test compounds and all files coded for post hoc analysis. Microplates were placed inside the DanioVision and acclimated for 20 min at room temperature. Locomotion plots were obtained for each well at a recording epoch of 10 min using EthoVision XT software (DanioVision, Noldus Information Technology). Seizure scoring was performed using the following three-stage scale established for pentylenetetrazole-induced seizures: Stage 0, no or very little swim activity; Stage I, increased, brief bouts of swim activity; Stage II, rapid “whirlpool-like” circling swim behavior; and Stage III, paroxysmal whole-body clonus-like convulsions, and a brief loss of posture. WT fish are typically scored at Stage 0 or I. Plots were analyzed for distance travelled (in millimeters) and mean velocity (in millimeters per second). After 90 mins of drug exposure larvae were examined for toxic side-effects. Compounds that decreased or stopped the larva heartbeat, or reduced or eliminated the escape response when touched, were considered toxic.
Statistics. Data are presented as the mean±standard error of the mean (SEM), unless otherwise stated. For behavior analysis, the threshold for a change in mean swim velocity ≥40% (>1.5×SD of 250 control treated scn1lab) is considered significant. For comparison between more than two groups one-way ANOVA analysis was used. […] Differences considered statistically significant are indicated with asterisks (*P<0.05; **P<0.01).

The target of the next series is human H1 receptor (Homo sapiens, UniProt P35367). Description: Radioligand binding assay (NIMH PDSP), H1. Also noted: expressed in transfected cells. Particulars: read-out: binding affinity (Ki) H1. As for the experimental part: as §1
Sequence of human H1 receptor (P35367 whole entry): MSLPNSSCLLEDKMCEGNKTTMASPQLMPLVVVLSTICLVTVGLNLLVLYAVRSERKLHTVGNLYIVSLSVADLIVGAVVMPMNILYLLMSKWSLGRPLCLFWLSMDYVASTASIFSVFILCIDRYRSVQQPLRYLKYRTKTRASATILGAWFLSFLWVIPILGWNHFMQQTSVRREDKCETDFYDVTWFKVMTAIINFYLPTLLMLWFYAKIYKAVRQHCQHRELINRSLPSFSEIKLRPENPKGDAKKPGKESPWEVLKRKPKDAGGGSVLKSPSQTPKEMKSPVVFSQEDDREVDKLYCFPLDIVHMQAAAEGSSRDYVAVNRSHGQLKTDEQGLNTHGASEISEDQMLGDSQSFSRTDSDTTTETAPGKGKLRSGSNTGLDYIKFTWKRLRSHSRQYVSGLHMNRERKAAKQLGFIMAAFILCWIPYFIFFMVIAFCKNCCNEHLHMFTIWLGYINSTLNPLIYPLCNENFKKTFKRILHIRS
The test system of series [5] is scn1lab mutant zebrafish. As to the kind of experiment: Toxicity in larvae after 90 min drug exposure (heartbeat, escape response). The series is classed as in vivo, zebrafish (Danio rerio). As to the method: as §2
The target of series [6] is T3, human 5-HT2CR. The following applies: known drugs and commercial compounds; read-out: binding affinity (Ki) 5-HT2C / 5-HT2CR; cited from earlier work.
The target in series [7] is T2, human 5-HT2BR. The following applies: known drugs and commercial compounds; read-out: binding affinity (Ki) 5-HT2B / 5-HT2BR; cited from earlier work.
Where [8] appears, read: clemizole analogs, recombinant human receptor.
The mark [9] stands for this setting: 30 and 90 min exposure, threshold ≥40%.
[10] abbreviates: read-out: binding affinity (Ki) 5-HT2AR.
[11] abbreviates: read-out: binding affinity (Ki) 5-HT2CR.

T1 sequence (P28223 whole entry): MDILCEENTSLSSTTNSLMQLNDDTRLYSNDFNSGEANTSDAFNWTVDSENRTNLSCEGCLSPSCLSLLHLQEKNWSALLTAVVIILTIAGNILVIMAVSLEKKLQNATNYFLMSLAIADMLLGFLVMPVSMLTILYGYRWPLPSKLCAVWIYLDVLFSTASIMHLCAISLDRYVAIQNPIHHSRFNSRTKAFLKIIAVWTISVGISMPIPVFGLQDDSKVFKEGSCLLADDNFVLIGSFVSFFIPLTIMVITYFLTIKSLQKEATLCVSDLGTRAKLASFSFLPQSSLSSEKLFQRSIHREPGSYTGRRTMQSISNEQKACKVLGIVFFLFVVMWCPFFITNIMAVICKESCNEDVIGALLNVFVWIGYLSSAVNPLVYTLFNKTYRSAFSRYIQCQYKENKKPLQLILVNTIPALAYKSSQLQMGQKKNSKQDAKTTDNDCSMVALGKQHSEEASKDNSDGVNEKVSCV

Take `c1ccc2c(c1)nc(CN1CCCC1)n2CC1CCCCC1` [Compound 4, 1-(Cyclohexylmethyl)-2-[(pyrrolidin-1-yl)methyl]-1H-benzimidazole]: the pKi on human 5-HT2AR was less than 5.00; on human 5-HT2BR [1] (setting [8]) it was 6.21; at human 5-HT2CR [2], less than 5.00; on human H1 receptor (setting [8]) it was 6.82. Besides, the “specificity / selectivity for 5-HT2BR over other 5-HT2R subtypes” value (shortened to “specificity / selectivity for 5-HT2BR”) on human 5-HT2BR [1] is given as “specificity for 5-HT2BR over other 5-HT2R subtypes; also recorded: significant preference for 5-HT2BR”. Further, in the series with scn1lab mutant zebrafish [3] (100 μM), the “frequency of electrographic seizure (epileptiform) events” value (“frequency of electrographic seizure” for short) was “significant changes in the frequency of events; also recorded: significant suppression of electrographic seizure activity”. The “suppression of seizure-like swim behavior (change in mean velocity)” value (“suppression … (change in mean velocity)” for short) in the series with scn1lab mutant zebrafish [4] (setting [9]) is recorded as “reduced the high-velocity seizure-like swim behavior”. Moreover, in the series with scn1lab mutant zebrafish [4], the “suppression of seizure-like swim behavior (change in mean swim velocity)” value (“suppression … (change in mean swim velocity)” below) was “effective in suppressing”.
In the case of `FC(F)(F)c1ccc(Cn2c(CN3CCCC3)nc3ccccc32)cc1` [Compound 6, 2-[(Pyrrolidin-1-yl)methyl]-1-{[4-(trifluoromethyl)phenyl]methyl}-1H-benzimidazole], the pKi at human 5-HT2AR (setting [10]) was less than 5.00; on human 5-HT2BR [1] (clemizole analogs, recombinant human receptor, listed as Comp. 6), 6.59; at human 5-HT2BR [1] (setting [8]), 6.55; on human 5-HT2CR [2] (setting [11]), less than 5.00; at human H1 receptor (setting [8]), 7.80. Further, at human 5-HT2BR [1], the “specificity / selectivity for 5-HT2BR” value is “specificity for 5-HT2BR over other 5-HT2R subtypes; also recorded: significant preference for 5-HT2BR”. In addition, the “frequency of electrographic seizure” value with scn1lab mutant zebrafish [3] (100 μM) was “significant changes in the frequency of events; also recorded: significant suppression of electrographic seizure activity”. Further, the “suppression … (change in mean velocity)” value in the series on scn1lab mutant zebrafish [4] (setting [9]) is “reduced the high-velocity seizure-like swim behavior”. The “suppression … (change in mean swim velocity)” value with scn1lab mutant zebrafish [4] is “effective in suppressing”.
Take `Clc1ccc(Cn2ccnc2CN2CCCC2)cc1` [Compound 9, 1-[(4-Chlorophenyl)methyl]-2-[(pyrrolidin-1-yl)methyl]-1H-imidazole]: the “toxicity after 90-min exposure” value with scn1lab mutant zebrafish [5] (250 μM) was “toxic”. For the same compound, the pKi on human 5-HT2CR [2] (clemizole analogs, recombinant human receptor, read-out: binding affinity (Ki) 5-HT2CR) is 6.35; at human H1 receptor (setting [8]), 7.54. For the same compound, the “suppression … (change in mean swim velocity)” value with scn1lab mutant zebrafish [4] was “effective in suppressing”.
On to `c1ccc2c(c1)nc(CN1CCCC1)n2CC1CCCC1` [Compound 20, 1-(Cyclopentylmethyl)-2-[(pyrrolidin-1-yl)methyl]-1H-benzimidazole], for which the pKi on human 5-HT2AR (setting [10]) is less than 5.00; on human 5-HT2BR [1] (setting [8]) it was 6.11; at human 5-HT2CR [2] (setting [11]), less than 5.00; at human H1 receptor (setting [8]), 6.79. Also, at human 5-HT2BR [1], the “specificity / selectivity for 5-HT2BR” value is “specificity for 5-HT2BR over other 5-HT2R subtypes; also recorded: significant preference for 5-HT2BR”. For the same compound, in the series on scn1lab mutant zebrafish [3] (100 μM), the “frequency of electrographic seizure” value is listed as “significant changes in the frequency of events; also recorded: significant suppression of electrographic seizure activity”. In the series on scn1lab mutant zebrafish [4] (setting [9]), the “suppression … (change in mean velocity)” value is recorded as “reduced the high-velocity seizure-like swim behavior”. For the same compound, the “suppression … (change in mean swim velocity)” value with scn1lab mutant zebrafish [4] was “effective in suppressing”.
With `Clc1ccc(Cn2c(CN3CCOCC3)nc3ccccc32)cc1` [Compound 23], the pKi at human 5-HT2AR (setting [10]) was less than 5.00; at human 5-HT2BR [1], 6.29; at human 5-HT2CR [2] (setting [11]) it was less than 5.00; at human H1 receptor, 7.47. Also, the “specificity / selectivity for 5-HT2BR” value on human 5-HT2BR [1] is on record as “selectivity for 5-HT2BR”. In the series on scn1lab mutant zebrafish [5] (initial library screen, concentration not given), the “toxicity after 90-min exposure” value is given as “toxic”.
As for `CC(C)C[C@H]1C(=O)N2CCC[C@H]2[C@]2(O)O[C@](NC(=O)[C@@H]3C=C4c5cccc6[nH]c(Br)c(c56)C[C@H]4N(C)C3)(C(C)C)C(=O)N12` [bromocriptine], in the series on scn1lab mutant zebrafish [5] (concentrations higher than 10 μM), the “toxicity after 90-min exposure” value was “toxicity”.
As for `CC[C@@H](CO)NC(=O)[C@@H]1C=C2c3cccc4[nH]cc(c34)C[C@H]2N(C)C1` [methylergonovine, reference compound], the figures for the pKi on human 5-HT2CR [6] and at human 5-HT2BR [7] were 8.34 and 8.66, respectively. In addition, the “frequency of electrographic seizure” value in the series with scn1lab mutant zebrafish [3] (250 μM) is on record as “significant changes in the frequency of events; also recorded: significantly suppressed the frequency of electrographic seizure events”. Further, the “effect on seizure-like swim behavior (change in mean velocity)” value with scn1lab mutant zebrafish [4] (commercial 5-HT2BR/dopamine agonists, three concentrations, 30 and 90 min exposure, threshold ≥40%) is “suppressed convulsive swim behaviors in a concentration-dependent manner”.

The record behind these values is patent US20220226508A1, “METHODS AND COMPOSITIONS FOR TREATING EPILEPSY” (THE REGENTS OF THE UNIVERSITY OF CALIFORNIA, priority 2019, published 2022).
